This passage reports IC50 results from PMC6720600, “Discovery of Novel TASK-3 Channel Blockers Using a Pharmacophore-Based Virtual Screening” (International Journal of Molecular Sciences, 2019).

Common to all, as to type: cell-based
The target in test [1] is T1, TASK-1 (Homo sapiens, UniProt O14649).
T1 construct: gene KCNK3
Put plainly: dose-response of TASK-1 channel inhibition (electrophysiology; expression details for TASK-1 not given).

Test [2] concerns the target T2, TASK-3 (Homo sapiens, UniProt Q9NPC2).
T2 construct: gene KCNK9
Kind of test: whole-cell patch clamp, HEK-293 cells transfected with TASK-3. (In patch-clamp work, channel activity is measured electrically.)

Test [3] deals with T1, TASK-1. Put plainly: dose-response curve on human TASK-1 (electrophysiology; value not given).

A word on the IC50: it is the concentration at which inhibition is half-maximal. Read a high IC50 as lower potency.

T1 sequence (O14649 whole entry): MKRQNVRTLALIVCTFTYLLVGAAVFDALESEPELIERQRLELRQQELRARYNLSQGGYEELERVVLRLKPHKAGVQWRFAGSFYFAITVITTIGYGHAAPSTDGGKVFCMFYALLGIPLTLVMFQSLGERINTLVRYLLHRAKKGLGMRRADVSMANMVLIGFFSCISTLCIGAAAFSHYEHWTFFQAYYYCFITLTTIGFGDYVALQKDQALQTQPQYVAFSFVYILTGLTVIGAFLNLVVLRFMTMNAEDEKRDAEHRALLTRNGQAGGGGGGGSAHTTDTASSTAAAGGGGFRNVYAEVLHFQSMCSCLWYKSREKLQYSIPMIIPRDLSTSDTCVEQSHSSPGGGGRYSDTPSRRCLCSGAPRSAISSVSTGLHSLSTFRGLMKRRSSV
T2 sequence (Q9NPC2 whole entry): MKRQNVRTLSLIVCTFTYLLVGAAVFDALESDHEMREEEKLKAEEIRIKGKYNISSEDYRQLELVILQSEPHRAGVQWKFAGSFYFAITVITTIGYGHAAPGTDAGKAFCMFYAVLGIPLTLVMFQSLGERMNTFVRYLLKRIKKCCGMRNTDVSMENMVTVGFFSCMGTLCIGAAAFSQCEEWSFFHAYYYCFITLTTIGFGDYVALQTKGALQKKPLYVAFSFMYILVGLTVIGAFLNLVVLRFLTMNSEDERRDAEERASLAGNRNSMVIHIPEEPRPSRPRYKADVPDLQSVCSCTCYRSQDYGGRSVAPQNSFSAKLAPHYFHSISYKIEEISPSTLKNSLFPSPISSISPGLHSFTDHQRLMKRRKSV

For `CC(C(=O)Nc1ccc(O)cc1F)c1cc2cccc(NC(=O)c3ccc(O)cc3)c2o1` (stereo not shown) [DR16.1], the half-maximal inhibitory concentration (IC50) is 21.2 ± 5.5 µM in test [1] and 14.2 ± 3.4 µM in test [2].

`CC(C(=O)Nc1ccc(O)cc1F)c1cc2ccccc2o1` (stereo not shown) [DR16]: the values for the IC50 in test [2] and in test [3] were 56.8 ± 3.9 µM and “Lead ligand DR16 blocks human TASK channels”, respectively.
